Earlier results in patent publication US20080070991A1 (priority 2006, published 2008).

Test system: stilbene synthase
Details: Barbera cell suspensions treated with 10 μm methyljasmonate

## CC/C=C\CC1C(=O)CCC1CC(=O)OC (stereo not shown) [methyljasmonate, Methyljasmonate]
  stilbene synthase expression (gel analysis): up-regulation of the stilbene synthase
